Data from patent US11384063B2, “Modulators of estrogen receptor proteolysis and associated methods of use” (Arvinas Operations, Inc., priority 2017, dated 2022).

What follows are molecules tested against T1, ERα (Homo sapiens, UniProt P03372) (assay: ERE luciferase reporter gene assay in T47D-KBluc cells (target engagement)). Conditions: 10% FBS, 24 hours, Table 1 cereblon centric PROTACs, read-out: ER-α Luciferase IC50.
T1 sequence (P03372 1-595): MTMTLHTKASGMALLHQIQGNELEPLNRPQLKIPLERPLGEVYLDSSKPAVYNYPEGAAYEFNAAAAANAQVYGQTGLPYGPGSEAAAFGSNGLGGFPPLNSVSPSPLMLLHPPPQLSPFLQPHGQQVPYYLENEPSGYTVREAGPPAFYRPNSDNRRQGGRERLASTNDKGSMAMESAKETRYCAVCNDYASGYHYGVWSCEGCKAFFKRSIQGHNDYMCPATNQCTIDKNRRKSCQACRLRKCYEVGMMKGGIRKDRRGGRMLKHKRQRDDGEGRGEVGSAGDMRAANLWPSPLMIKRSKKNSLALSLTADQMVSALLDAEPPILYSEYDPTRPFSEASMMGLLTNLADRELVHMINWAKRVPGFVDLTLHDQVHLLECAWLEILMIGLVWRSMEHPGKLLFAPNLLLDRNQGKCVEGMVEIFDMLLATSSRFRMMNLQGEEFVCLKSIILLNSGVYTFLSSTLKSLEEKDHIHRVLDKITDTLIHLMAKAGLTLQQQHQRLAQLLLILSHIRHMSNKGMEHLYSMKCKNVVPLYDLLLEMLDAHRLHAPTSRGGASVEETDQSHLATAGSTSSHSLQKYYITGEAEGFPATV
Type: cell-based
Set-up: T47D human breast cancer cells stably transfected with estrogen responsive element/promoter/luciferase reporter gene; host or cells: T47D-KBluc cells
Description: Chimeric molecules were assessed for target engagement in T47D cells using the commercial kit of ERE luciferase reporter gene assay. In the assay, 10% FBS was included and estrogen level was measured to be 10 pM.
ERE Luciferase Assay for Compounds in Table 1-3.
T47D-KBluc cells (ATCC #CRL_2865, T47D human breast cancer cells stably transfected with estrogen responsive element/promoter/luciferase reporter gene) were seeded into 96-well white opaque plates in RPMI growth medium supplemented with 10% fetal bovine serum and allowed to adhere overnight in a 37° C. humidified incubator. The following day, cells were treated with PROTACs in a 12-point concentration curve (top final concentration of 300 nM with subsequent concentrations being 3-fold less with 2 pM being the lowest concentration in the assay). Each PROTAC was tested independently in two experiments on 96-well plates. After 24 hours, media was removed and lysis buffer was added to the wells. Following lysis, Bright-Glo™ Luciferase Assay Substrate (Prornega, Madison Wis.) was added and the luciferase activity was measured using a Cytation 3 plate reader (TioTek™, Winooski, Vt.). Each compound was assayed in duplicates and the activity was calculated as IC50 using GraphPad Prism software (San Diego, Calif.).

| IC50 | Structure (SMILES) |
| --- | --- |
| 3.1 nM | O=C1CCC(N2Cc3cc(NCCOCCOc4ccc(Oc5c(-c6ccc(Br)cc6)sc6cc(O)ccc56)cc4)ccc3C2=O)C(=O)N1 (stereo not drawn) [Compound 72] |
| 37.4 nM | O=C1CCC(N2C(=O)c3ccc(OCCCOCCCOCCCOc4ccc(Oc5c(-c6ccc(Br)cc6)sc6cc(O)ccc56)cc4)cc3C2=O)C(=O)N1 (stereo not drawn) [Compound 80] |
| 30.9 nM | O=C1CCC(N2C(=O)c3ccc(NCCCOCCCOCCCOc4ccc(Oc5c(-c6ccc(Br)cc6)sc6cc(O)ccc56)cc4)cc3C2=O)C(=O)N1 (stereo not drawn) [Compound 84] |
| 0.94 nM | O=C1CCC(N2Cc3cc(NCCCN4CCN(CCOc5ccc(Oc6c(-c7ccc(Br)cc7)sc7cc(O)ccc67)cc5)CC4)ccc3C2=O)C(=O)N1 (stereo not drawn) [Compound 71] |
| 1.6 nM | O=C1CCC(N2C(=O)c3ccc(CCCOC4CCN(CCOc5ccc(Oc6c(-c7ccc(Br)cc7)sc7cc(O)ccc67)cc5)CC4)cc3C2=O)C(=O)N1 (stereo not drawn) [Compound 70] |
| 44.9 nM | O=C1CCC(N2C(=O)c3ccc(NCCCOCCOCCOc4ccc(Oc5c(-c6ccc(Br)cc6)sc6cc(O)ccc56)cc4)cc3C2=O)C(=O)N1 (stereo not drawn) [Compound 83] |
| 6 nM | O=C1CCC(N2Cc3cc(NCCCOCCOc4ccc(Oc5c(-c6ccc(Br)cc6)sc6cc(O)ccc56)cc4)ccc3C2=O)C(=O)N1 (stereo not drawn) [Compound 85] |
| 27.8 nM | O=C1CCC(N2C(=O)c3ccc(OCCCOCCOCCOc4ccc(Oc5c(-c6ccc(Br)cc6)sc6cc(O)ccc56)cc4)cc3C2=O)C(=O)N1 (stereo not drawn) [Compound 79] |

More lines, now with the values behind:

| Structure (SMILES) | IC50 |
| --- | --- |
| O=C1CCC(N2C(=O)c3cccc(NCCOCCOCCOc4ccc(Oc5c(-c6ccc(Br)cc6)sc6cc(O)ccc56)cc4)c3C2=O)C(=O)N1 (stereo not drawn) [Compound 26] | 9.7 nM |
| O=C1CCC(N2C(=O)c3cccc(NCCN4CCN(CCOc5ccc(Oc6c(-c7ccccc7)sc7cc(O)ccc67)cc5)CC4)c3C2=O)C(=O)N1 (stereo not drawn) [Compound 10] | 0.63 nM |
| O=C1CCC(N2C(=O)c3cccc(NCCOCCOCCOCCOc4ccc(Oc5c(-c6ccc(Br)cc6)sc6cc(O)ccc56)cc4)c3C2=O)C(=O)N1 (stereo not drawn) [Compound 23] | 22.4 nM |
| O=C1CCC(N2Cc3cc(OCCCOCCCOCCOc4ccc(Oc5c(-c6ccc(Br)cc6)sc6cc(O)ccc56)cc4)ccc3C2=O)C(=O)N1 (stereo not drawn) [Compound 45] | 6.5 nM |
| O=C1CCC(N2Cc3c(NCCN4CCN(CCOc5ccc(Oc6c(-c7ccccc7)sc7cc(O)ccc67)cc5)CC4)cccc3C2=O)C(=O)N1 (stereo not drawn) [Compound 2] | 0.36 nM |
| O=C1CCC(N2Cc3cc(N4CCN(CCOc5ccc(Oc6c(-c7ccc(Br)cc7)sc7cc(O)ccc67)cc5)CC4)ccc3C2=O)C(=O)N1 (stereo not drawn) [Compound 55] | 1.8 nM |
| O=C1CCC(N2Cc3c(NCCOCCOCCOCCOc4ccc(Oc5c(-c6ccc(Br)cc6)sc6cc(O)ccc56)cc4)cccc3C2=O)C(=O)N1 (stereo not drawn) [Compound 22] | 41.4 nM |
| O=C1CCC(N2Cc3cc(OCCCOCCCOCCCOc4ccc(Oc5c(-c6ccc(Br)cc6)sc6cc(O)ccc56)cc4)ccc3C2=O)C(=O)N1 (stereo not drawn) [Compound 36] | 4.7 nM |
| O=C1CCC(N2Cc3cc(CCC(=O)N4CCN(CCOc5ccc(Oc6c(-c7ccc(Br)cc7)sc7cc(O)ccc67)cc5)CC4)ccc3C2=O)C(=O)N1 (stereo not drawn) [Compound 46] | 1.9 nM |
| O=C1CC[C@@H](N2Cc3c(OCc4ccc(CN5CCN(CCOc6ccc(Oc7c(-c8ccc(Br)cc8)sc8cc(O)ccc78)cc6)CC5)nc4)cccc3C2=O)C(=O)N1 [Compound 9] | 2.9 nM |
| O=C1CCC(N2C(=O)c3cccc(NCCOc4ccc(Oc5c(-c6ccc(Br)cc6)sc6cc(O)ccc56)cc4)c3C2=O)C(=O)N1 (stereo not drawn) [Compound 32] | 8.2 nM |
| O=C1CCC(N2C(=O)c3ccc(N4CCN(CCCCCCCOc5ccc(Oc6c(-c7ccc(Br)cc7)sc7cc(O)ccc67)cc5)CC4)cc3C2=O)C(=O)N1 (stereo not drawn) [Compound 69] | 103 nM |
| O=C1CCC(N2C(=O)c3ccc(NCCC4CCN(CCOc5ccc(Oc6c(-c7ccc(Br)cc7)sc7cc(O)ccc67)cc5)CC4)cc3C2=O)C(=O)N1 (stereo not drawn) [Compound 62] | 8.5 nM |
| O=C1CCC(N2Cc3cc(OCCCOCCCOCCCCOc4ccc(Oc5c(-c6ccc(Br)cc6)sc6cc(O)ccc56)cc4)ccc3C2=O)C(=O)N1 (stereo not drawn) [Compound 48] | 8.3 nM |
| O=C1CCC(N2C(=O)c3cccc(NCCOCCOc4ccc(Oc5c(-c6ccc(Br)cc6)sc6cc(O)ccc56)cc4)c3C2=O)C(=O)N1 (stereo not drawn) [Compound 29] | 19.2 nM |
| O=C1CCC(N2Cc3c(NCCOCCOc4ccc(Oc5c(-c6ccc(Br)cc6)sc6cc(O)ccc56)cc4)cccc3C2=O)C(=O)N1 (stereo not drawn) [Compound 27] | 8.3 nM |
| O=C1CCC(N2Cc3cc(N4CCN(CCCOc5ccc(Oc6c(-c7ccc(Br)cc7)sc7cc(O)ccc67)cc5)CC4)ccc3C2=O)C(=O)N1 (stereo not drawn) [Compound 59] | 3.6 nM |
| O=C1CCC(N2C(=O)c3ccc(N4CCN(CCCCOc5ccc(Oc6c(-c7ccc(Br)cc7)sc7cc(O)ccc67)cc5)CC4)cc3C2=O)C(=O)N1 (stereo not drawn) [Compound 60] | 29.9 nM |

Same assay, conditions: 10% FBS, 24 hours, Table 2 VHL centric PROTACs, read-out: IC50

| Structure (SMILES) | IC50 |
| --- | --- |
| Cc1ncsc1-c1ccc(CNC(=O)[C@@H]2C[C@@H](O)CN2C(=O)[C@@H](NC(=O)CCC(=O)N2CC3CN(CCOc4ccc(Oc5c(-c6ccc(F)cc6)sc6cc(O)ccc56)cc4)CC3C2)C(C)(C)C)cc1 (stereo partly drawn) [Compound 115] | > 100 nM |
| CC(C)(C)[C@H](NC(=O)Cc1ccc(-c2ccn(CCOc3ccc(Oc4c(-c5ccc(F)cc5)sc5cc(O)ccc45)cc3)n2)cc1)C(=O)N1C[C@H](O)C[C@H]1C(=O)NCc1ccc(Cl)cc1 [Compound 146] | > 100 nM |
| CC(C)(C)[C@H](NC(=O)COCCOCCN1CCC(c2ccc(Oc3c(-c4ccc(F)cc4)sc4cc(O)ccc34)cc2)CC1)C(=O)N1C[C@H](O)C[C@H]1C(=O)NCc1ccc(C#N)cc1 [Compound 143] | 32 nM |
| Cc1ncsc1-c1ccc([C@H](C)NC(=O)[C@@H]2C[C@@H](O)CN2C(=O)[C@@H](NC(=O)COCCCOCCCOc2ccc(Oc3c(-c4ccc(F)cc4)sc4cc(O)ccc34)cc2)C(C)(C)C)cc1 [Compound 112, (2S,4R)-1-((S)-2-(2-(3-(3-(4-(2-(4-fluorophenyl)-6-hydroxybenzo[b]thiophen-3-yloxy)phenoxy)propoxy)propoxy)acetamido)-3,3-dimethylbutanoyl)-4-hydroxy-N—((S)-1-(4-(4-methylthiazol-5-yl)phenyl)ethyl)pyrrolidine-2-carboxamide] | 15.8 nM |
| COc1ccc2c(Oc3ccc(OCCN4CCN(CCOCC(=O)N[C@H](C(=O)N5CCC[C@H]5C(=O)NCc5ccc(-c6scnc6C)cc5)C(C)(C)C)CC4)cc3)c(-c3ccc(Br)cc3)sc2c1 [Compound 157] | > 100 nM |
| Cc1ncsc1-c1ccc([C@H](C)NC(=O)[C@@H]2C[C@@H](O)CN2C(=O)[C@@H](NC(=O)COCCOCCCOc2ccc(Oc3c(-c4ccc(F)cc4)sc4cc(O)ccc34)cc2)C(C)(C)C)cc1 [Compound 113, (2S,4R)-1-((S)-2-(2-(2-(3-(4-(2-(4-fluorophenyl)-6-hydroxybenzo[b]thiophen-3-yloxy)phenoxy)propoxy)ethoxy)acetamido)-3,3-dimethylbutanoyl)-4-hydroxy-N—((S)-1-(4-(4-methylthiazol-5-yl)phenyl)ethyl)pyrrolidine-2-carboxamide] | 23.7 nM |

Same assay, conditions: 10% FBS, 24 hours, Table 3 cereblon centric PROTACs, read-out: ER-α Luciferase IC50

| Structure (SMILES) | IC50 |
| --- | --- |
| O=C1CCC(N2Cc3cc(N4CC(N5CCC(Oc6ccc(Oc7c(-c8ccc(Br)cc8)sc8cc(O)ccc78)cc6)CC5)C4)ccc3C2=O)C(=O)N1 (stereo not drawn) [Compound 240] | 1.2 nM |
| O=C1CCC(N2C(=O)c3ccc(N4CCC(CN5CCC(Oc6ccc(Oc7c(-c8ccc(C(F)(F)F)cc8)sc8cc(O)ccc78)cc6)CC5)CC4)cc3C2=O)C(=O)N1 (stereo not drawn) [Compound 188] | 8.7 nM |
| O=C1CCC(N2C(=O)c3ccc(N4CC(CN5CCC(c6ccc(Oc7c(-c8ccc(Br)cc8)sc8cc(O)ccc78)cc6)CC5)C4)cc3C2=O)C(=O)N1 (stereo not drawn) [Compound 209] | 2.8 nM |
| O=C1CCC(N2C(=O)c3ccc(N4CC(CN5CCN(CCOc6ccc(Oc7c(-c8ccc(Br)cc8)sc8cc(O)ccc78)cc6)CC5)C4)cc3C2=O)C(=O)N1 (stereo not drawn) [Compound 189] | 3 nM |
| O=C1CCC(N2Cc3cc(N4CC(CN5CCC(c6ccc(Oc7c(-c8ccc(Br)cc8)sc8cc(O)ccc78)cc6)CC5)C4)ccc3C2=O)C(=O)N1 (stereo not drawn) [Compound 241] | 6.7 nM |
| O=C1CCC(N2C(=O)c3ccc(N4CCN(CCCCc5ccc(Oc6c(-c7ccc(Br)cc7)sc7cc(O)ccc67)cc5)CC4)cc3C2=O)C(=O)N1 (stereo not drawn) [Compound 211] | 31.6 nM |
| O=C1CCC(N2Cc3c(ccc(N4CCN(C5CCN(CCOc6ccc(Oc7c(-c8ccc(Br)cc8)sc8cc(O)ccc78)cc6)CC5)CC4)c3F)C2=O)C(=O)N1 (stereo not drawn) [Compound 195] | 2.9 nM |
